Laboratory results published in US20110015274A1, “FORM OF AN […] DERIVATIVE” (priority 2009, published 2011).
Values joined by “and” are separate entries in the source; they are usually repeats but may differ in a detail not shown here. Identical values can stand only once. Like-named read-outs stand apart in the source and are kept apart here.

What was measured:
[1] = by volume, wet dispersion in Isopar G, sonicated 3 minutes; mesylate
Source text: The particle size parameters measured in the present disclosure have been obtained by means of laser light diffraction technique, and specifically by means of a Malvern Mastersizer S particle size analyzer having characteristics as set out below. Namely, the laser source used was a 2 milliwatt Helium/neon laser (633 nm wavelength); the detection system was a Fourier Transform lens system; the sample was run using a […]; the sample unit was a sample unit for wet measurement, and particularly was a MS1-Small volume Sample Dispersion Unit stirred cell. The wet dispersion was prepared by using a solution of 1.5 g of Soybean Lecithin in 200 mL of Isopar G as a sample dispersant, and the dispersion was controlled by stirring the unit cell. […] The characterization parameters (volume distributions) were measured for at least six times for each sample, and the result is a mean of said measured values for each sample.
A 300RF mm lens and a beam length of 2.4 mm were used. Preparation of sample dispersant: 1.5 g of Soybean Lecithin was added to 200 mL of Isopar G, and the mixture was mixed gently until Lecithin dissolved. […] The paste was delivered to the previously background and corrected measuring cell filled with dispersant (Isopar G) until the obscuration reached the desired level. The suspension was sonicated for 3 minutes. Volume distributions were obtained for at least six measures. After completing the measurements, the sample cell was emptied and cleaned, refilled with suspending medium, and the sampling procedure repeated again. For characterization, the values of D10, D50 and D90 (by volume) were specifically listed, each one being the mean of the measured values available for each characterization parameter.
The notation Dx [also written as D(v, 0.X)] means that X % of the particles have a diameter less than a specified diameter D. Thus a D90 [or D(v, 0.9)] of 100 μm means that 90% of the particles have a diameter less than 100 μm.

[2] = N2 at 77 K, relative pressures 0.05 to 0.3; mesylate
Source text: The specific surface area values disclosed in the present disclosure have been obtained by means of a specific surface area analysis technique based on the BET (Brunauer, Emmett and Teller) theory, which is a well-accepted theory known in the art for the calculation of surface areas of solids by means of measuring their physical adsorption of gas molecules (See S. Brunauer, P. H. Emmett and E. Teller, J. Am. Chem. Soc., 1938, 60, 309). In particular, the specific surface area values measured have been calculated from the BET surface area plot obtained by measuring the quantity of nitrogen gas molecules adsorbed by a weighted amount of solid at different relative pressures (P/P0) within the range 0.05 to 0.3, at 77K. Precisely, the measurement of the adsorption of gas molecules was carried out by means of a Micromeritics™ Gemini V equipment having the characteristics as set out below. Namely, the gas used for adsorption measure was nitrogen gas. […] The sample for analysis was degassed (at 30° C. for 10 minutes and at 130° C. for 90 minutes). The determination of the adsorption of nitrogen was measured at 77K and for twelve relative pressures sufficiently dispersed within in the range of 0.05 to 0.3 (i.e. twelve absolute pressures in the range of 38.860001 mmHg to 230.464996 mmHg relative to a saturated pressure of 765.705017 mmHg).
The sample for analysis was degassed at 30° C. for 10 minutes and at 130° C. for 90 minutes.

[3] = 25° C.±1° C., 80%±2% relative humidity, 24 hours
Description: The percentage increase in mass was calculated based on the hygroscopicity method described in the European Pharmacopoeia 5.0 (general chapter 5.11).

[4] = Description: The substantial absence of agglomeration in accordance with the present invention can be determined by visual inspection and/or by optical microscopy. […] That is, the smallest agglomerate to be observed by particle size analysis would be the agglomerate resultant of the union of a single crystal with another which would lead to an increase of 100% in the D90 and/or the D50 measured value.
The chromatographic separation was carried out in a Chiralpak IC, 5 μm, 250×4.6 mm I.D column; at 30° C.
The mobile phase was prepared by mixing 950 mL of n-hexane, 40 mL of 2-propanol, 10 mL of ethanol, 4 mL of trifluoroacetic acid and 1 mL of diethylamine. The mixture was mixed thoroughly.
The chromatograph was equipped with a 265 nm detector, and the flow rate was 1.4 mL per minute.
The test samples were prepared by dissolving the appropriate amount of sample to obtain 10 mg per mL in diluent. The diluent was prepared by mixing 89 mL of mobile phase, 10 mL of 2-propanol and 1 mL of diethylamine. The injection volume was 5 μL.
Samples were taken and analyzed after 1, 2, 3 and 6 months storage.

[5] = WO 2008/019871 Example 8, prepared in isopropanol; cited from earlier work
[6] = cited from earlier work
[7] = material with D90 of less than 6 μm stored at 25±2° C., 65±5% relative humidity, 5 days; cited from earlier work
[8] = heating at 80° C. for 72, 96 or 144 hours, and refluxing in isopropanol for 30 hours; cited from earlier work
[9] = cited from earlier work; remark: listed apart in the source

SMILES | Particle size D(v, 0.1) [1] [μm] | Particle size D(v, 0.5) [1] [μm] | Particle size D(v, 0.9) [1] | Specific Surface Area (BET) [2] [m^2/g] | also measured
C#CCN[C@@H]1CCc2ccccc21.CS(=O)(=O)O [Example 1, R-(+)-N-propargyl-1-aminoindan mesylate] | 30.6 | 89.0 | 163.6 μm | 0.0722 | 
C#CCN[C@@H]1CCc2ccccc21.CS(=O)(=O)O [Example 2, R-(+)-N-propargyl-1-aminoindan mesylate] | 37.0 | 118.7 | 246.7 μm |  | 
C#CCN[C@@H]1CCc2ccccc21.CS(=O)(=O)O [Example 3, R-(+)-N-propargyl-1-aminoindan mesylate] | 37.4 | 159.6 | 404.2 μm | 0.0474 | 
C#CCN[C@@H]1CCc2ccccc21.CS(=O)(=O)O [Example 4, R-(+)-N-propargyl-1-aminoindan mesylate] | 54.9 | 208.5 | 464.0 μm | 0.1434 | % Mass increase [3]: 0.01%; Hygroscopicity (in words) [3]: not hygroscopic material; Total impurities (HPLC) ([4]; 1 month, 40±2° C., 75%±5% relative humidity): <0.05%; Total impurities (HPLC) ([4]; 2 months, 40±2° C., 75%±5% relative humidity): <0.05%; Total impurities (HPLC) ([4]; 3 months, 40±2° C., 75%±5% relative humidity): <0.05%; Total impurities (HPLC) ([4]; 6 months, 40±2° C., 75%±5% relative humidity): <0.05%; Total impurities (HPLC) ([4]; Initial sample): <0.05%
C#CCN[C@@H]1CCc2ccccc21.CS(=O)(=O)O [Reference Example 1, R-(+)-N-propargyl-1-aminoindan mesylate] | 17.4 | 62.6 | 118.0 μm | 0.3216 | 
C#CCN[C@@H]1CCc2ccccc21.CS(=O)(=O)O [Reference Example 2, R-(+)-N-propargyl-1-aminoindan mesylate] | 14.7 | 60.2 | 143.6 μm | 0.2490 | 
C#CCN[C@@H]1CCc2ccccc21.CS(=O)(=O)O [Reference Example 3, R-(+)-N-propargyl-1-aminoindan mesylate] | 127.5 | 311.2 | 611 μm and 611.1 μm | 0.0274 | 
C#CCN[C@@H]1CCc2ccccc21.CS(=O)(=O)O [rasagiline mesylate, R-(+)-N-propargyl-1-aminoindan mesylate] |  |  |  |  | Particle size d(0.1) [5]: 13.6±0.05 μm; Particle size d(0.5) [5]: 40.5±0.25 μm; Particle size d(0.9) [5]: 85.7±0.89 μm; Particles below 250 μm [5]: 100%; d(0.9) or D90 after milling ([6]; after milling): 156-189 μm; d(0.9) or D90 before milling ([6]; samples containing large, irregular particles, initial): 386-598 μm; D90 after storage [7]: approximately 151 μm; Appearance [8]: kept an appearance of white powder; Behaviour of the powder on storage ([9]; 4 weeks at 40° C., 75% relative humidity in an opened container): transforms into a sticky powder; Behaviour of the powder on storage ([9]; 4 weeks at 60° C. in a closed glass bottle): agglomerates; Change in water content on storage ([9]; 4 weeks storage, WO 2008/019871 Example 5): no substantial changes
